46 compounds from ChEMBL document CHEMBL1145140, “Inhibitors of inosine monophosphate dehydrogenase: SARs about the N-[3-Methoxy-4-(5-oxazolyl)phenyl moiety” (Bioorg Med Chem Lett, 2003) can be followed below.

Assay [1] has as its system CCRF-CEM. Briefly: Inhibition of CEM cell proliferation. Format: functional, cell-based. As to conditions: Homo sapiens.
The target in assay [2] is Inosine-5'-monophosphate dehydrogenase 2 (Homo sapiens, UniProt P12268). Description: Inhibition of inosine-5'-monophosphate dehydrogenase 2. Format: single protein.

What is called IC50 is the concentration at which inhibition is half-maximal. A low value points to inhibition by little substance. In the case of `CC(C)(C)NC(=O)C(=O)Nc1ccc(-c2cnco2)c(Cl)c1`, the IC50 in assay [1] was over 10000 nM.

The compound `CC(C)(C)NC(=O)C(=O)Nc1ccc(-c2cnco2)c(Br)c1` had an IC50 in assay [1] of 5500 nM.

Take `COc1cc(NC(=O)C(=O)NC(C)(C)C)ccc1-c1cnco1`: in assay [1], inhibition was half-maximal at 2300 nM (IC50).

With `CC(C)(C)NC(=O)C(=O)Nc1ccc(-c2cnco2)cc1`, the concentration for half-maximal inhibition (IC50) in assay [2] is over 5000 nM.

In assay [2], `Cc1ncoc1-c1ccc(NC(=O)C(=O)NC(C)(C)C)cc1` registered an IC50 of over 5000 nM.

With `Cc1cccc(NC(=O)Nc2ccc(-c3cnco3)c(Cl)c2)c1`, the IC50 in assay [1] was over 10000 nM; in assay [2] it was 43 nM.

For `CN(C(=O)CN1CCOCC1)c1ccccc1-c1cnc(Nc2ccc(-c3cnco3)c(Cl)c2)o1`, the IC50 in assay [1] stood at 4300 nM; in assay [2] it was 47 nM.

With `c1ccc(-c2cnc(Nc3ccc(-c4cocn4)cc3)o2)cc1`, the IC50 in assay [2] is over 5000 nM.

For the compound `Cc1cc(Nc2ncc(-c3ccccc3N(C)C(=O)CO)o2)ccc1-c1cnco1`, the IC50 worked out at 4500 nM in assay [1] and 100 nM in assay [2].

As to `Cc1cccc(NC(=O)Nc2ccc(-c3ocnc3C)cc2)c1`, inhibition in assay [2] was half-maximal at 500 nM (IC50).

Regarding `COc1cc(Nc2ncc(-c3ccccc3N(C)C(=O)CN3CCOCC3)o2)ccc1-c1cocn1`, the values for the IC50 in assay [1] and in assay [2] were 9900 nM and 91 nM, respectively.

As to `CNc1nc(Nc2ccc(-c3cocn3)c(OC)c2)nc(-c2ccccc2)n1`, in assay [2], the IC50 is 1600 nM.

Take `COc1cc(Nc2ncc(-c3ccccc3N(C)C(=O)CO)o2)ccc1-c1cnco1`: the values for the concentration for half-maximal inhibition (IC50) in assay [1] and in assay [2] were 1400 nM and 21 nM, respectively.

For the compound `COc1c(-c2cnco2)ccc(Nc2ncc(-c3ccccc3)o2)c1Cl`, the IC50 in assay [2] was over 5000 nM.

`CN(C(=O)CN1CCOCC1)c1ccccc1-c1cnc(Nc2ccc(-c3cnco3)c(Br)c2)o1`: the IC50 in assay [1] was 3200 nM; in assay [2] it was 28 nM.

Turning to `CNc1nc(Nc2ccc(-c3cnco3)c(OC)c2)nc(-c2ccccc2)n1`, the IC50 in assay [1] was determined as 3700 nM.

`COc1cc(NC(=NC#N)Nc2ccccc2)ccc1-c1cnco1`: half-maximal inhibition in assay [2] (IC50) required 240 nM.

As to `Cc1cccc(NC(=O)Nc2ccc(-c3cnco3)cc2)c1`, the IC50 is over 10000 nM in assay [1] and 640 nM in assay [2].

In assay [2], `COc1cc(Nc2ncc(-c3ccccc3)o2)c(F)cc1-c1cnco1` came in with an IC50 of over 5000 nM.

With `CNc1nc(Nc2ccc(-c3cnco3)cc2)nc(-c2ccccc2)n1`, the IC50 in assay [2] is over 5000 nM.

For `COc1cc(Nc2ncc(-c3ccccc3)o2)ccc1-n1cncn1`, the IC50 was determined as 8300 nM in assay [1] and 410 nM in assay [2].

On to `Cc1cc(Nc2ncc(-c3ccccc3)o2)ccc1-c1cocn1`, for which the IC50 in assay [2] is over 5000 nM.

As for `CCc1cc(Nc2ncc(-c3ccccc3N(C)C(=O)CO)o2)ccc1-c1cnco1`, the 50% inhibitory concentration (IC50) in assay [1] stood at 4500 nM; in assay [2], 100 nM.

As to `Cc1cc(Nc2ncc(-c3ccccc3N(C)C(=O)CN3CCOCC3)o2)ccc1-c1cnco1`, the results for the IC50 in assay [1] and in assay [2] were 3000 nM and 45 nM, respectively.

`Clc1cc(Nc2ncc(-c3ccccc3)o2)ccc1-c1cocn1` yielded an IC50 in assay [2] of over 5000 nM.

In assay [2], `CCOc1cc(Nc2ncc(-c3ccccc3)o2)ccc1-c1cnco1` gave an IC50 of over 10000 nM.

As for `CNc1nc(Nc2ccc(-c3ocnc3C)cc2)nc(-c2ccccc2)n1`, the IC50 in assay [2] was over 5000 nM.

With `CCc1cc(Nc2ncc(-c3ccccc3N(C)C(=O)CN3CCOCC3)o2)ccc1-c1cnco1`, the IC50 was over 10000 nM in assay [1] and 310 nM in assay [2].

Take `CN(C(=O)CO)c1ccccc1-c1cnc(Nc2ccc(-c3cnco3)c(Br)c2)o1`: the IC50 in assay [1] was determined as 2400 nM; in assay [2], 21 nM.

In turn, `Oc1cc(Nc2ncc(-c3ccccc3)o2)ccc1-c1cnco1` showed an IC50 in assay [2] of over 1600 nM.

For the compound `COc1cc(Nc2ncc(-c3ccccc3N(C)C(=O)CO)o2)ccc1-c1cocn1`, the IC50 in assay [1] worked out at 3700 nM; in assay [2], 41 nM.

Compound `COc1cc(Nc2ncc(-c3ccccc3)o2)c(Cl)cc1-c1cnco1` had an IC50 in assay [2] of over 1600 nM.

`Clc1cc(Nc2ncc(-c3ccccc3)o2)ccc1-c1cnco1`: the IC50 was over 10000 nM in assay [1] and 88 nM in assay [2].

Turning to `CN(C(=O)CO)c1ccccc1-c1cnc(Nc2ccc(-c3cnco3)c(Cl)c2)o1`, the IC50 in assay [1] came to 3600 nM; in assay [2] it was 41 nM.

`COc1cc(Nc2ncc(-c3ccccc3)o2)ccc1-c1cnc(C)o1` yielded an IC50 in assay [2] of over 2000 nM.

In assay [2], `Cc1nc(C)c(-c2ccc(Nc3ncc(-c4ccccc4)o3)cc2)o1` had an IC50 of over 2000 nM.

As to `COc1cc(Nc2ncc(-c3ccccc3)o2)ccc1-c1cocn1`, the IC50 in assay [1] was over 10000 nM; in assay [2] it was over 57 nM.

The compound `COc1cc(Nc2ncc(-c3ccccc3)o2)ccc1-c1ocnc1C` showed an IC50 in assay [2] of over 5000 nM.

The compound `COc1cc(Nc2ncc(-c3ccccc3)o2)ccc1-c1cnco1` returned an IC50 in assay [1] of over 10000 nM.

The compound `Cc1ncoc1-c1ccc(NC(=O)/C=C/c2ccco2)cc1` had an IC50 in assay [2] of over 2000 nM.

On to `Cc1ncoc1-c1ccc(Nc2ncc(-c3ccccc3)o2)cc1`, for which, in assay [2], the IC50 was over 5000 nM.

Compound `COc1cc(NC(=O)Nc2cccc(C)c2)ccc1-c1cnco1` gave an IC50 in assay [1] of 2300 nM.

As to `c1ccc(-c2cnc(Nc3ccc(-c4cnco4)cc3)o2)cc1`, the IC50 in assay [2] was over 5000 nM.

The compound `COc1cc(Nc2ncc(-c3ccccc3)o2)ccc1-c1ncco1` came in with an IC50 in assay [2] of 190 nM.

Regarding `COc1cc2nc(-c3ccccc3)cc(O)c2cc1-c1cocn1`, the IC50 stood at 3500 nM in assay [1] and 210 nM in assay [2].

In assay [2], `CNc1nc(Nc2ccc(-c3cnco3)c(Cl)c2)nc(-c2ccccc2)n1` gave a half-maximal inhibitory concentration (IC50) of over 340 nM.
